Laboratory results reported in paper PMC7334220, “Diamond Blackfan anemia is mediated by hyperactive Nemo-like kinase” (Nature Communications, 2020).

What was measured:
p38 = assay: DiscoveRX kinase profile analysis of SD208, p38; format: biochemical; conditions: 10 µM; kinase profiling; Supplementary Fig. 2a
NLK = molecular target: T1, NLK (Homo sapiens, UniProt Q9UBE8); assay: DiscoveRX kinase profile analysis of SD208, NLK; format: biochemical; conditions: kinase profiling, Supplementary Fig. 2a
T1 construct: NLK, p38, or ALK5 for in vitro kinase assays were immunopurified from Kp53A1 cells; endogenous in cells; immunoprecipitated with anti-NLK (Abcam AB97642)
T1 sequence (Q9UBE8 1-527): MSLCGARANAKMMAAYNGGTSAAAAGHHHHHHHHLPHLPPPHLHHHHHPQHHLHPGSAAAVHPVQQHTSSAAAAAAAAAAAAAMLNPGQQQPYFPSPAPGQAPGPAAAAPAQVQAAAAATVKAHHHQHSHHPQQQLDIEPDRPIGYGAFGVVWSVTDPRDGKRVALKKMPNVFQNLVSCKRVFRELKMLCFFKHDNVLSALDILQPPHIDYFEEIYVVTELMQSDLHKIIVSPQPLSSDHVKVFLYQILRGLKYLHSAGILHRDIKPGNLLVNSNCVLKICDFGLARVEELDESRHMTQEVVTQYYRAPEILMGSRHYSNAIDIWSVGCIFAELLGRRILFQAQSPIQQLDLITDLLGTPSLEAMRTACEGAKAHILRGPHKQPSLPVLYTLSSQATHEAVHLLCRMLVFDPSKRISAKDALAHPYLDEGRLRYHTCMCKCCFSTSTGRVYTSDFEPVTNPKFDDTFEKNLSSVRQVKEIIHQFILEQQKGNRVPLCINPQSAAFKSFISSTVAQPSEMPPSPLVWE
Method: Supplementary Fig. 2. SD208 and NLK siRNA are specific. (a) The top 22 hits from DiscoveRX kinase profile analysis of SD208. (b) Human cord blood CD34+ progenitors were transduced shRNA against luciferase (shLuc) or RPS19 (shRPS19) and differentiated in erythroid media in the presence […]
days. Cells were counted and assessed for cell surface expression of CD235. Effective inhibition of p38 activity was assessed by lysis of treated controls and Western blot analysis of pp38. (c) Cord blood CD34+ progenitors were transduced with shRNA against RPS19 and either non-targeting (NT) or 1 of 3 different shRNA sequences against NLK. After sorting, cells were differentiated for 12 days. Lysates were subjected to qRT-PCR to assess NLK expression (Upper) and the number of CD235+ erythroblasts was determined by flow cytometry and is expressed relative to erythroid expansion of control cells (Lower). (d) Kp53A1 cells were untransfected (Unt), transfected with a non-targeting sequence (NT), or siRNA against NLK (siNLK). Phosphorylation status of p38, JNK and ERK was determined by treating transfected Kp53A1 cells EPO prior to Western blot analysis for pp38, pJNK and pERK. Transfected cells were cultured for 48 hours prior to lysis. Lysates were subjected to SDS-PAGE and protein expression of the listed proteins was determined by Western blot analysis. […]

Fc1ccc(Cl)cc1-c1nc(Nc2ccncc2)c2nccnc2n1 [SD208]
inhibition of p38 kinase activity (p38): 99.6%
inhibition at 10 µM (NLK): 96.8%
